According to ChEMBL document CHEMBL5463729, “Data for DCP probe BAY 1753011” (2023):

Columns and labels:
Settings in all cases: Compound concentration 10.0 uM
[1] = molecular target: Calcium/calmodulin-dependent protein kinase type 1G (Homo sapiens) (UniProt Q96NX5); assay: Inhibition of CaMKIgamma(h) at 10.0 µM in the Eurofins Kinase panel
[2] = molecular target: Calcium/calmodulin-dependent protein kinase type II subunit beta (Homo sapiens) (UniProt Q13554); assay: Inhibition of CaMKIIbeta(h) at 10.0 µM in the Eurofins Kinase panel
[3] = molecular target: Calcium/calmodulin-dependent protein kinase type IV (Homo sapiens) (UniProt Q16566); assay: Inhibition of CaMKIV(h) at 10.0 µM in the Eurofins Kinase panel
[4] = molecular target: Calcium/calmodulin-dependent protein kinase kinase 1 (Homo sapiens) (UniProt Q8N5S9); assay: Inhibition of CaMKK1(h) at 10.0 µM in the Eurofins Kinase panel
[5] = molecular target: Cyclin-Y/Cyclin-dependent kinase 16 (Homo sapiens) (UniProt Q00536+Q8ND76); assay: Inhibition of CDK16/cyclinY(h) at 10.0 µM in the Eurofins Kinase panel; assay type: protein-complex assay
[6] = molecular target: CDK17/Cyclin-Y (Homo sapiens) (UniProt Q00537+Q8ND76); assay: Inhibition of CDK17/cyclinY(h) at 10.0 µM in the Eurofins Kinase panel; assay type: protein-complex assay
[7] = molecular target: CDK6/cyclin D3 (Homo sapiens) (UniProt P30281+Q00534); assay: Inhibition of CDK6/cyclinD3(h) at 10.0 µM in the Eurofins Kinase panel; assay type: protein-complex assay
[8] = molecular target: CDK9/cyclin T1 (Homo sapiens) (UniProt O60563+P50750); assay: Inhibition of CDK9/cyclin T1(h) at 10.0 µM in the Eurofins Kinase panel; assay type: protein-complex assay
[9] = molecular target: Serine/threonine-protein kinase 35 (Homo sapiens) (UniProt Q8TDR2); assay: Inhibition of CLIK1(h) at 10.0 µM in the Eurofins Kinase panel
[10] = molecular target: Serine/threonine-protein kinase DCLK2 (Homo sapiens) (UniProt Q8N568); assay: Inhibition of DCAMKL2(h) at 10.0 µM in the Eurofins Kinase panel
[11] = molecular target: Dual specificity tyrosine-phosphorylation-regulated kinase 1B (Homo sapiens) (UniProt Q9Y463); assay: Inhibition of DYRK1B(h) at 10.0 µM in the Eurofins Kinase panel
[12] = molecular target: Beta-adrenergic receptor kinase 1 (Homo sapiens) (UniProt P25098); assay: Inhibition of GRK2(h) at 10.0 µM in the Eurofins Kinase panel
[13] = molecular target: Interleukin-1 receptor-associated kinase 1 (Homo sapiens) (UniProt P51617); assay: Inhibition of IRAK1(h) at 10.0 µM in the Eurofins Kinase panel
[14] = molecular target: Ribosomal protein S6 kinase beta-1 (Homo sapiens) (UniProt P23443); assay: Inhibition of p70S6K(h) at 10.0 µM in the Eurofins Kinase panel
[15] = molecular target: Serine/threonine-protein kinase D2 (Homo sapiens) (UniProt Q9BZL6); assay: Inhibition of PKD2(h) at 10.0 µM in the Eurofins Kinase panel
[16] = molecular target: T1, cGMP-dependent protein kinase 1 (Homo sapiens) (UniProt Q13976); assay: Inhibition of PKG1beta(h) at 10.0 µM in the Eurofins Kinase panel
T1 sequence (whole entry): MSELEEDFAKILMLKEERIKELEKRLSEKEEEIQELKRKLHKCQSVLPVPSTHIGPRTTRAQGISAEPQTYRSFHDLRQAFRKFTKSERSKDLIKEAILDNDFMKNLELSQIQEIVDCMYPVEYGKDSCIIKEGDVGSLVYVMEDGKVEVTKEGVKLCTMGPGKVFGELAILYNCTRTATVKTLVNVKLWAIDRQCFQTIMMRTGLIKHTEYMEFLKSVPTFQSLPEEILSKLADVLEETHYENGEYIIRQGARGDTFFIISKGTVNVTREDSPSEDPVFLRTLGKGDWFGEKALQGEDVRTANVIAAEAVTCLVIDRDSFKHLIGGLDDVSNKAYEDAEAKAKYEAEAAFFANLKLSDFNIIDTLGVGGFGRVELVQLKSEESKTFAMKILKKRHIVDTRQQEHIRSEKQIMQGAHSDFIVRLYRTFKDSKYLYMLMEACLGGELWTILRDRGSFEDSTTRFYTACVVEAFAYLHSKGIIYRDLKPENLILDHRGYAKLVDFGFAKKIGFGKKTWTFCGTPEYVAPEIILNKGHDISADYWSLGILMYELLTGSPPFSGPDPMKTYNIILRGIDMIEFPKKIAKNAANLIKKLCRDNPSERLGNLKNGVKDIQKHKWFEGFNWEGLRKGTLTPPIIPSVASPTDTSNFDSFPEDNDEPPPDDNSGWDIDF

[17] = molecular target: Serine/threonine-protein kinase PLK3 (Homo sapiens) (UniProt Q9H4B4); assay: Inhibition of Plk3(h) at 10.0 µM in the Eurofins Kinase panel
[18] = molecular target: Serine/threonine-protein kinase PRP4 homolog (Homo sapiens) (UniProt Q13523); assay: Inhibition of PRP4(h) at 10.0 µM in the Eurofins Kinase panel
[19] = molecular target: Serine/threonine-protein kinase 32A (Homo sapiens) (UniProt Q8WU08); assay: Inhibition of STK32A(h) at 10.0 µM in the Eurofins Kinase panel
[20] = molecular target: TGF-beta receptor type-1 (Homo sapiens) (UniProt P36897); assay: Inhibition of TGFBR1(h) at 10.0 µM in the Eurofins Kinase panel
[21] = molecular target: Serine/threonine-protein kinase VRK2 (Homo sapiens) (UniProt Q86Y07); assay: Inhibition of VRK2(h) at 10.0 µM in the Eurofins Kinase panel
[22] = molecular target: T2, Alpha-2C adrenergic receptor (Homo sapiens) (UniProt P18825)
T2 sequence (whole entry): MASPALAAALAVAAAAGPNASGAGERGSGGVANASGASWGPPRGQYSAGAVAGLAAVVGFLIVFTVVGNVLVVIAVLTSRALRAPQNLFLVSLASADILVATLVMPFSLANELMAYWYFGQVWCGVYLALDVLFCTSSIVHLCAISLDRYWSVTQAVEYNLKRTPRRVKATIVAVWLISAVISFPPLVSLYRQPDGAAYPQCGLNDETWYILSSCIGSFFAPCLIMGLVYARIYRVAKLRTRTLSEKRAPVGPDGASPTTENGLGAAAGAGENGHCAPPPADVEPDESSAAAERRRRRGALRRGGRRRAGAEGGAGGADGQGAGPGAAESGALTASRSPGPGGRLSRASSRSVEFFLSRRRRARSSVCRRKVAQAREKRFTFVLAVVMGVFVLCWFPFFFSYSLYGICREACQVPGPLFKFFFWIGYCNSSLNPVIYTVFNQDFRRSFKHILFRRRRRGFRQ

[23] = molecular target: Sigma intracellular receptor 2 (Homo sapiens) (UniProt Q5BJF2)
[24] = molecular target: Adenosine receptor A3 (Homo sapiens) (UniProt P0DMS8)
[25] = molecular target: Serine/threonine-protein kinase PAK 6 (Homo sapiens) (UniProt Q9NQU5); assay: Inhibition of PAK6(h) at 10.0 µM in the Eurofins Kinase panel

Sequence of Sigma intracellular receptor 2 (Homo sapiens) (Q5BJF2 whole entry): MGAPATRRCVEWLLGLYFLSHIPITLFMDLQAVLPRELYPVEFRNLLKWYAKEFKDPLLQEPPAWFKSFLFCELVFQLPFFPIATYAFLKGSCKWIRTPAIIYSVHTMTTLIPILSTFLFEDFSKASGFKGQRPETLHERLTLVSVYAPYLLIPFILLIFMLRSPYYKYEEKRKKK
Sequence of Calcium/calmodulin-dependent protein kinase type II subunit beta (Homo sapiens) (Q13554 whole entry): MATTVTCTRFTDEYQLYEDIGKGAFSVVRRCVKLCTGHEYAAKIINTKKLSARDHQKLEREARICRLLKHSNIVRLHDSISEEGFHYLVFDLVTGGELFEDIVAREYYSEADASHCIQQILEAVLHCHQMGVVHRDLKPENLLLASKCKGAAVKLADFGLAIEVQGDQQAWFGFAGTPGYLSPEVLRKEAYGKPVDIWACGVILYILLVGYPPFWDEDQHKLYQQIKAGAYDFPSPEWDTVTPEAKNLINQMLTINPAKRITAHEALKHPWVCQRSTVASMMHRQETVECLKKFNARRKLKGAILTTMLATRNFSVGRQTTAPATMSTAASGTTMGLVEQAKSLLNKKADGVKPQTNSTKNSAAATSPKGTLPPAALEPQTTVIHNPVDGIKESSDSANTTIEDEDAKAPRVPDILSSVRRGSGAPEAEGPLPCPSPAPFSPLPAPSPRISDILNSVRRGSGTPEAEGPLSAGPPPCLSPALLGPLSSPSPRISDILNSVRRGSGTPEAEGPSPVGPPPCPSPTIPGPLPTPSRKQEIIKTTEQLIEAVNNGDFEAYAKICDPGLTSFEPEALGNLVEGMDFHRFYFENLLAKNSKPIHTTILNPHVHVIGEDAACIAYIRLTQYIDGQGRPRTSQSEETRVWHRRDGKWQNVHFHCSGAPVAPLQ
Sequence of Serine/threonine-protein kinase PLK3 (Homo sapiens) (Q9H4B4 whole entry, looked up): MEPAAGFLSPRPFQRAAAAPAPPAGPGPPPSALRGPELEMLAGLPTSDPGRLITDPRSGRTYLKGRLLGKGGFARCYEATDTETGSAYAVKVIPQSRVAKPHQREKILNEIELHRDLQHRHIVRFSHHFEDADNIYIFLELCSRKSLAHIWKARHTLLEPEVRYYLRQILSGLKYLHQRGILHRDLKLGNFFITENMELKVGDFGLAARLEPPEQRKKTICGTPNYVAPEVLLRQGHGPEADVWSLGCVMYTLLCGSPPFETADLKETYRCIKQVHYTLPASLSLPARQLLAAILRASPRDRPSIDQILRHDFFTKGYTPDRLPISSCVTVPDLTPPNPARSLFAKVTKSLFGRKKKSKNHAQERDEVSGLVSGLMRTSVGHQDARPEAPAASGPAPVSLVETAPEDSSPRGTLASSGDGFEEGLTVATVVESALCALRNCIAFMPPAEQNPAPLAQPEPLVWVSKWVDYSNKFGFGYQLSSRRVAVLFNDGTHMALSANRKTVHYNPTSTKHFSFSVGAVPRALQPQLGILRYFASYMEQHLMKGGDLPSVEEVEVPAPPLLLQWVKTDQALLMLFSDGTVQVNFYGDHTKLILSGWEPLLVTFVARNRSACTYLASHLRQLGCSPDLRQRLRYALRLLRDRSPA
Sequence of Dual specificity tyrosine-phosphorylation-regulated kinase 1B (Homo sapiens) (Q9Y463 whole entry, looked up): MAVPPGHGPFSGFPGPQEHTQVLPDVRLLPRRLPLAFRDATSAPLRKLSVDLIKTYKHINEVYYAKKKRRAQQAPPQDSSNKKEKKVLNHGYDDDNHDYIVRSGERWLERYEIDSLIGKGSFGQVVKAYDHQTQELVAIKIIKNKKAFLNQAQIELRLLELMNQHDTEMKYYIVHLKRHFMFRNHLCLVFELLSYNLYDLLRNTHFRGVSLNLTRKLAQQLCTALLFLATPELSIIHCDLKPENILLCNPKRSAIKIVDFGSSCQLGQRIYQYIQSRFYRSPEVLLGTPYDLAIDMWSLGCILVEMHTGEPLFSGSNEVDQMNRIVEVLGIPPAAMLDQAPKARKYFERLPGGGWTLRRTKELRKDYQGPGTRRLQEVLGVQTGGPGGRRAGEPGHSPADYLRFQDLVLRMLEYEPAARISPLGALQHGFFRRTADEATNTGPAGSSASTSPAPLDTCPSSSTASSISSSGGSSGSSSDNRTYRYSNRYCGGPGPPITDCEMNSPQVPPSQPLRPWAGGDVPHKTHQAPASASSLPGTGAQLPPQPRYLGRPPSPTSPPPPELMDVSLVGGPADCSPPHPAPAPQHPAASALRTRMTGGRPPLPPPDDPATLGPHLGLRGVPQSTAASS
Sequence of Serine/threonine-protein kinase PRP4 homolog (Homo sapiens) (Q13523 whole entry): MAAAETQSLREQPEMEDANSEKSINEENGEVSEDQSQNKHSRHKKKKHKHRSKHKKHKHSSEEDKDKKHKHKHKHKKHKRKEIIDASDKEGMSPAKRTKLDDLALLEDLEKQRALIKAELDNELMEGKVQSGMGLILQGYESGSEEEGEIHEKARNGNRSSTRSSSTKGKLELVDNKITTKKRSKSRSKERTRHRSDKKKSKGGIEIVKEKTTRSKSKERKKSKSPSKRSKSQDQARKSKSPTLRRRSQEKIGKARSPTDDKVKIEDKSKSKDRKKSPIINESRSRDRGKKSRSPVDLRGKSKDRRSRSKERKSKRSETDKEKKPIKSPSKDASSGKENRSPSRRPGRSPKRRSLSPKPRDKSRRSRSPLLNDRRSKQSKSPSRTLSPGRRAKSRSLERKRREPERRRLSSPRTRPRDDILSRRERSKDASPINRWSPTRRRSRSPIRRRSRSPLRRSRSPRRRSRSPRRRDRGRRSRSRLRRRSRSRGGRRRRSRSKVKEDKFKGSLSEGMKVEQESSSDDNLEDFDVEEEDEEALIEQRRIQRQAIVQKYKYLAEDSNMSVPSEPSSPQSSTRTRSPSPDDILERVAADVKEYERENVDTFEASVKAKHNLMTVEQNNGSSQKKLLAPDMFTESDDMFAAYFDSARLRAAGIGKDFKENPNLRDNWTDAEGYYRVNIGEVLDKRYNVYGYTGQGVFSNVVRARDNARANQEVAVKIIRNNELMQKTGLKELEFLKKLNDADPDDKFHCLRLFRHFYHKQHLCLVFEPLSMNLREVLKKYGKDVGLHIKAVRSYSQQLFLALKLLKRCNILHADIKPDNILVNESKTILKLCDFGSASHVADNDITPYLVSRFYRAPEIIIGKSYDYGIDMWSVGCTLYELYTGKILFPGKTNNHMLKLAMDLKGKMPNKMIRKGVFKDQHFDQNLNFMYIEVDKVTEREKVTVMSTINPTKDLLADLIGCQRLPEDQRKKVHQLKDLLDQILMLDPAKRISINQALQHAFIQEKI
Sequence of Beta-adrenergic receptor kinase 1 (Homo sapiens) (P25098 whole entry): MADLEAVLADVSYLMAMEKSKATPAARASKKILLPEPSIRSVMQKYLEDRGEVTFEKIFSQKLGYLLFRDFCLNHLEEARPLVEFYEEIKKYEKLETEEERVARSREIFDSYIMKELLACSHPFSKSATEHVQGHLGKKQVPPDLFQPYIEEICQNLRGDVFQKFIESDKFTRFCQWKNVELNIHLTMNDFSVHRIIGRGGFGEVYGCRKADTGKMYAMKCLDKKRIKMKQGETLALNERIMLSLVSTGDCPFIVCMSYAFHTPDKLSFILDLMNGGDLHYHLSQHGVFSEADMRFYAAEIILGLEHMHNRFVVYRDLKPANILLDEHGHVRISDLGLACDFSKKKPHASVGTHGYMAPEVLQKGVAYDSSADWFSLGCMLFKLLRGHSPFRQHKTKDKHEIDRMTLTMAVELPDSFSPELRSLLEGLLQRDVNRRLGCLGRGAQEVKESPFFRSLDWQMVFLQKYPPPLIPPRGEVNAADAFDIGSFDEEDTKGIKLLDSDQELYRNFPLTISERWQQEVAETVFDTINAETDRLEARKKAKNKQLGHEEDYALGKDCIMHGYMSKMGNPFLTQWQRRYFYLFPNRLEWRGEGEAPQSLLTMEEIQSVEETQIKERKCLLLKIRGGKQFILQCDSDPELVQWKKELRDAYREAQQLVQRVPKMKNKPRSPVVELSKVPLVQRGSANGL
Sequence of Calcium/calmodulin-dependent protein kinase type IV (Homo sapiens) (Q16566 whole entry): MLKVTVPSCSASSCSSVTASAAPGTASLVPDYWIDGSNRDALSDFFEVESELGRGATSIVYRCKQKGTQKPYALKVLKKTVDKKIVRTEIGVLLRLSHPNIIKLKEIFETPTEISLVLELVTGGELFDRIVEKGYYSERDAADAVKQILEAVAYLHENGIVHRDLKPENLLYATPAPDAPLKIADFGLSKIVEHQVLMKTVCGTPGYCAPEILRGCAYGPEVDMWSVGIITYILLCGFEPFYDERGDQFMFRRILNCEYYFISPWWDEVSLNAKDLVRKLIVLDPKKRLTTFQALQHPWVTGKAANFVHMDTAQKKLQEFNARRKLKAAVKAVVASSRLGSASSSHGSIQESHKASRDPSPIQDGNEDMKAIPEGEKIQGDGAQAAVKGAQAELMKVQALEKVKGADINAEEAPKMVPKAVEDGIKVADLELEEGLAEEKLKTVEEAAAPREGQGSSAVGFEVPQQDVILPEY
Sequence of Interleukin-1 receptor-associated kinase 1 (Homo sapiens) (P51617 whole entry, looked up): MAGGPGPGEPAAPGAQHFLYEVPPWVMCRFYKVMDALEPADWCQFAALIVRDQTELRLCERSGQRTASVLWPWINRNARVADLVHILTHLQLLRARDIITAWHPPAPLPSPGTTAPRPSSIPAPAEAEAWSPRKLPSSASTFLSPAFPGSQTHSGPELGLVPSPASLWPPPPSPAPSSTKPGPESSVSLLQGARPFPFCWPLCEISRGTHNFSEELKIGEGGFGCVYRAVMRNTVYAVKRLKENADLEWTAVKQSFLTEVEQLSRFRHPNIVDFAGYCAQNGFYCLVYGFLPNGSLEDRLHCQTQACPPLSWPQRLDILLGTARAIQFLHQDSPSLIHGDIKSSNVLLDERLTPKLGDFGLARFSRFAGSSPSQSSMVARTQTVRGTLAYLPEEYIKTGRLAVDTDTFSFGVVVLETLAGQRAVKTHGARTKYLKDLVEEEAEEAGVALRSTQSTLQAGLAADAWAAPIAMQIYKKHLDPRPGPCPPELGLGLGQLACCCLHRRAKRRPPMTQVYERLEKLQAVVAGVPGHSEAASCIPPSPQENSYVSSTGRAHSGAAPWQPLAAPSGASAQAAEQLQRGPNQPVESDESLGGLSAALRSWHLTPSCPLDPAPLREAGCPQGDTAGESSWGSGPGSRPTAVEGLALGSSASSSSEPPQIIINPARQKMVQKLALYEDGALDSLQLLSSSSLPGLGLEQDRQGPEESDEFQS

Row | SMILES | inhibition [1] [%] | inhibition [2] [%] | inhibition [3] [%] | inhibition [4] [%] | inhibition [5] [%] | inhibition [6] [%] | inhibition [7] [%] | inhibition [8] [%] | inhibition [9] [%] | inhibition [10] [%] | inhibition [11] [%] | inhibition [12] [%] | inhibition [13] [%] | inhibition [14] [%] | inhibition [15] [%] | inhibition [16] [%] | inhibition [17] [%] | inhibition [18] [%] | inhibition [19] [%] | inhibition [20] [%] | also measured
1 | O=c1n(Cc2cncn2-c2cccc(Cl)c2)nc(-c2ccc(Cl)cc2)n1C[C@H](O)C(F)(F)F | 0.71 | -8.58 | 8.3 | 1.19 | 4.57 | 3.78 | 0.27 | -1.79 | 7.34 | -8.53 | 15.4 | -6.21 | 1.24 | 4.83 | 1.71 | -1.12 | -0.3 | -1.84 | -1.08 | 3.39 | inhibition [21]: 10.4%; inhibition [22]: -9.85%; inhibition [23]: 9.61%; inhibition [24]: 7%; inhibition [25]: -5.8%
2 | C[C@H](O)c1nc(Cn2nc(-c3ccc(Cl)cc3)n(C[C@H](O)C(F)(F)F)c2=O)nn1-c1cccc(Cl)c1 [PECAVAPTAN] | -0.43 | -0.27 | 10.3 | -5.02 | -5.42 | 5.47 | -0.62 | -3.05 | 9.3 | -9.34 | 15.8 | 5.86 | -0.22 | 1.02 | 1.59 | 1.79 | 0.49 | 6.82 | 3.15 | 5.09 | inhibition [21]: 6.61%; inhibition [22]: -2.74%; inhibition [23]: 27.7%; inhibition [24]: 16%; inhibition [25]: -4.81%
